According to the supplement of paper PMC10307832:

Key:
Experiment in all cases: relative viability (nuclei count vs DMSO), 5 days (fraction); higher = more cells survive
GSK-J4 + Trametinib = compound: CCOC(=O)CCNc1cc(N2CCc3ccccc3CC2)nc(-c2ccccn2)n1 [GSK-J4] + CC(=O)Nc1cccc(-n2c(=O)n(C3CC3)c(=O)c3c(Nc4ccc(I)cc4F)n(C)c(=O)c(C)c32)c1 [Trametinib] (partner 0.02 µM)
Method in brief: (§1)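 Nuclei were stained with Hoechst during a one-step fixation (final 0.05% Triton X-100, 1% formaldehyde, 1 ug/ml Hoechst) carried out 5 days after dosing, then counted on 4× images. The cells, lung cancer lines in 1536-well plates, had been dosed by pin tool the day after seeding with one drug alone or a fixed anchor-drug dose plus five library-drug doses (not always all listed) in √10 steps. Relative viability is the nuclei count in treated wells divided by that in vehicle wells, and each value is the median of duplicate plates.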

GSK-J4 + Luminespib = compound: CCOC(=O)CCNc1cc(N2CCc3ccccc3CC2)nc(-c2ccccn2)n1 [GSK-J4] + CCNC(=O)c1noc(-c2cc(C(C)C)c(O)cc2O)c1-c1ccc(CN2CCOCC2)cc1 [Luminespib] (partner 0.01 µM)
Method in brief: as §1

AZ3146 + Pictilisib = compound: CN1CCC(CC1)OC2=CC(=C(C=C2)NC3=NC=C4C(=N3)N(C(=O)N4C)C5CCCC5)OC [AZ3146] + CS(=O)(=O)N1CCN(Cc2cc3nc(-c4cccc5[nH]ncc45)nc(N4CCOCC4)c3s2)CC1 [Pictilisib] (partner 1 µM)
Method in brief: as §1

AZ3146 + Olaparib = compound: CN1CCC(CC1)OC2=CC(=C(C=C2)NC3=NC=C4C(=N3)N(C(=O)N4C)C5CCCC5)OC [AZ3146] + O=C(c1cc(Cc2n[nH]c(=O)c3ccccc23)ccc1F)N1CCN(C(=O)C2CC2)CC1 [Olaparib] (partner 8 µM)
Method in brief: as §1

Cell Line	relative viability (GSK-J4 + Trametinib; first compound 0.5 µM)	relative viability (GSK-J4 + Trametinib; first compound 1.581 µM)	relative viability (GSK-J4 + Trametinib; first compound 5 µM)	relative viability (GSK-J4 + Trametinib; first compound 15.81 µM)	relative viability (GSK-J4 + Trametinib; first compound 50 µM)	relative viability (GSK-J4 + Luminespib; first compound 0.5 µM)	relative viability (GSK-J4 + Luminespib; first compound 1.581 µM)	relative viability (GSK-J4 + Luminespib; first compound 5 µM)	relative viability (GSK-J4 + Luminespib; first compound 15.81 µM)	relative viability (GSK-J4 + Luminespib; first compound 50 µM)	relative viability (AZ3146 + Pictilisib; first compound 0.08 µM)	relative viability (AZ3146 + Pictilisib; first compound 0.253 µM)	relative viability (AZ3146 + Pictilisib; first compound 0.8 µM)	relative viability (AZ3146 + Pictilisib; first compound 2.53 µM)	relative viability (AZ3146 + Pictilisib; first compound 8 µM)	relative viability (AZ3146 + Olaparib; first compound 0.08 µM)	relative viability (AZ3146 + Olaparib; first compound 0.253 µM)	relative viability (AZ3146 + Olaparib; first compound 0.8 µM)	relative viability (AZ3146 + Olaparib; first compound 2.53 µM)	relative viability (AZ3146 + Olaparib; first compound 8 µM)
NCI-H322M	0.513	0.482	0.623	0.457	0.503	0.857	0.756	0.953	0.646	0.542	0.585	0.478	0.439	0.491	0.512	0.839	0.839	0.644	0.813	0.729
NCI-H358	0.145		0.157	0.118	0.131	0.292	0.304	0.354	0.397	0.337	0.355	0.39	0.394	0.398	0.326	0.555	0.578	0.592	0.583	0.442
NCI-H441	0.498	0.386	0.492	0.383	0.352	0.303	0.298	0.476	0.394	0.308	0.46	0.532	0.467	0.537	0.503	0.519	0.645	0.603	0.678	0.523
NCI-H460	0.258		0.143	0.0717	0.0851	0.0274	0.0313	0.03	0.0363	0.0333	0.293	0.323	0.297	0.416	0.461	0.242	0.45	0.416	0.449	0.352
NCI-H520	0.625	0.486	0.577	0.559	0.472	0.215	0.242	0.207	0.194	0.197	0.255	0.287	0.303	0.284	0.31	0.306	0.352	0.396	0.418	0.289
NCI-H596	0.797	0.759	0.639	0.725	0.771	0.981	0.969	1.23	0.941	0.807	0.361	0.374	0.413	0.302	0.41	0.677	0.738	0.752	0.77	0.765
NCI-H647	0.521	0.393	0.357	0.445	0.499	0.29	0.125	0.235	0.166	0.125	0.485	0.423	0.258	0.366	0.476	0.412	0.474	0.592	0.603	0.237
NCI-H650	0.949	0.871		0.771	0.745	0.688	0.682	0.597	0.749	0.519	0.661	0.837	0.634	0.905	1.01	0.271	0.361	0.385	0.46	0.413
NCI-H661	0.583	0.582	0.5	0.462	0.418	0.911	0.902	0.929	0.904	0.6	0.489	0.417	0.34	0.463	0.446	0.806	0.768	0.736	0.791	0.678
NCI-H727	0.405	0.393	0.378	0.385	0.331	0.299	0.402	0.244	0.336	0.369	0.324	0.431	0.328	0.605	0.316	0.632	0.632	0.701	0.853	0.775
NCI-H838	0.566	0.455	0.223	0.436	0.332	0.299	0.335		0.247	0.168	0.557	0.467	0.39	0.387	0.266	0.771	0.769	0.766	0.724	0.253
NCI-H1355	0.371	0.4	0.486	0.396	0.327	0.691	0.701	0.77	0.513	0.651	0.334	0.452	0.525	0.467	0.512	0.72	0.761	0.759	0.83	0.807
NCI-H1395	1.04	0.919	1.02	0.806	0.854	0.529	0.621	0.62	0.723	0.536	0.536	0.628	0.539	0.623	0.726	0.485	0.532		0.568	0.552
NCI-H1437	0.478	0.444	0.553	0.491	0.29	1.05	1.1	1.1	1.03	0.739	0.432	0.376	0.45	0.393	0.461	0.589	0.611	0.611	0.635	0.532
NCI-H1650	0.678	0.56	0.608	0.646	0.419	0.17	0.222	0.228	0.153	0.231	0.52	0.671	0.53	0.535	0.493	0.857	0.722	0.752	0.736	0.621
NCI-H1651	0.761	0.785	0.898	0.79	0.772	0.703	0.728	0.727	0.701	0.625	0.556	0.668	0.576	0.475	0.489	0.191	0.185	0.2	0.214	0.202

Cell Line	relative viability (GSK-J4 + Trametinib; first compound 0.5 µM)	relative viability (GSK-J4 + Trametinib; first compound 1.581 µM)	relative viability (GSK-J4 + Trametinib; first compound 5 µM)	relative viability (GSK-J4 + Trametinib; first compound 15.81 µM)	relative viability (GSK-J4 + Trametinib; first compound 50 µM)	relative viability (GSK-J4 + Luminespib; first compound 0.5 µM)	relative viability (GSK-J4 + Luminespib; first compound 1.581 µM)	relative viability (GSK-J4 + Luminespib; first compound 5 µM)	relative viability (GSK-J4 + Luminespib; first compound 15.81 µM)	relative viability (GSK-J4 + Luminespib; first compound 50 µM)	relative viability (AZ3146 + Pictilisib; first compound 0.08 µM)	relative viability (AZ3146 + Pictilisib; first compound 0.253 µM)	relative viability (AZ3146 + Pictilisib; first compound 0.8 µM)	relative viability (AZ3146 + Pictilisib; first compound 2.53 µM)	relative viability (AZ3146 + Pictilisib; first compound 8 µM)	relative viability (AZ3146 + Olaparib; first compound 0.08 µM)	relative viability (AZ3146 + Olaparib; first compound 0.253 µM)	relative viability (AZ3146 + Olaparib; first compound 0.8 µM)	relative viability (AZ3146 + Olaparib; first compound 2.53 µM)	relative viability (AZ3146 + Olaparib; first compound 8 µM)
NCI-H1666	0.843	0.695	0.923	0.704	0.77	1.02	0.925	1.11	1.03	0.735	0.307	0.507	0.485	0.582	0.648	0.719	0.79	0.741	0.75	0.741
NCI-H1734	0.633	0.524	0.627	0.58	0.545	0.209	0.167	0.181	0.186	0.155	0.501	0.522	0.418	0.474	0.499	0.58	0.61	0.632	0.607	0.612
NCI-H1755	0.809	0.72	0.754	0.649	0.65	0.355	0.387	0.504	0.326	0.383	0.421	0.433	0.359	0.441	0.442	0.867	0.892	0.89	0.945	0.923
NCI-H1792	0.523	0.44	0.468	0.39	0.38	0.46		0.533	0.358	0.454	0.211	0.238	0.32	0.339	0.285	0.351	0.522	0.384	0.42	0.434
NCI-H1793	0.432	0.375	0.336	0.28	0.228	0.261	0.192	0.18	0.258	0.134	0.298	0.376	0.278	0.469	0.261	0.864	0.859	0.667	0.892	0.544
NCI-H1915	0.299	0.302		0.28	0.293	0.824	0.791		0.657	0.613	0.748	0.911	1.11	1	1.07	0.24	0.283	0.271	0.277	0.312
NCI-H1944	0.4	0.394		0.307	0.357	0.762	0.711	0.851	0.649	0.799		0.34	0.323	0.376	0.364	0.36	0.391	0.408	0.475	0.473
NCI-H1975	0.356	0.262	0.296	0.329	0.264	0.261	0.202		0.178	0.284	0.266	0.343	0.305	0.303	0.304	0.748	0.774	0.813	0.793	0.418
NCI-H1993	0.514	0.504	0.497	0.544	0.532	0.885	0.803	0.779	0.525	0.494	0.806	0.797	0.788	0.839	0.762	1	1.12	1.12	1.04	1.06
NCI-H2009	0.262	0.266	0.195	0.252	0.199	1.05	0.918		0.938	0.407	0.891	0.962	0.886	0.917	0.605	0.642	0.662	0.742	0.649	0.604
NCI-H2023	0.559	0.591	0.59	0.475	0.431	0.73	0.685	0.862	0.76	0.472	0.241	0.285	0.19	0.265	0.202	0.464	0.451	0.494	0.436	0.152
NCI-H2085	0.482	0.663	0.586	0.517	0.57	0.477	0.394	0.419	0.41	0.309	0.486	0.433	0.506	0.547	0.438	0.792	0.749	0.749	0.764	0.711
NCI-H2087	0.189	0.171	0.257	0.169	0.222	0.172		0.166	0.162	0.174	1.14	0.926	0.669	0.968	0.847	0.563	0.654	0.649	0.637	0.419
NCI-H2126	0.567	0.575	0.566	0.503	0.503	0.796	0.867	0.876	0.82	0.651	0.41	0.483	0.465	0.517	0.496	0.908	0.898	0.897	0.967	0.862
NCI-H2170	0.852	0.882	0.958	0.872	0.829	0.576	0.668	0.81	0.362	0.609	0.297	0.315	0.327	0.297	0.243	0.578	0.63	0.542	0.614	0.623
NCI-H2228	0.523	0.526	0.48	0.415	0.334	0.189	0.124	0.152	0.143	0.124	0.412	0.306	0.349	0.282	0.314	0.873	0.632	0.672	0.503	0.544
